Holding throughout (type): in vivo
Assay [1] relates to S100B. Briefly: Ex.3 neuroprotective HIE rat model: blood serum S100B ELISA. The following applies: PND14. On the procedure:
(§1) Blood was withdrawn, centrifuged and the serum samples were stored at −80° C.
(§2) ELISAs for detecting the brain damage markers S100B protein (Catalog# CSB-E08066r, Cusabio Biotech Co., LTD, China), and glial fibrillary acidic protein (GFAP) (Catalog# E90068Ra, Uscn Life sciences Inc., China) in blood serum samples were performed according to the manufacturers' recommendations.
Newborn rat pups were assigned to one of the following 6 groups from postnatal day 4: Sham group (n=24), Vehicle group (n=14), E4 1 mg/kg/per day group (n=11), E4 5 mg/kg/per day group (n=14), E4 10 mg/kg/per day group (n=14), or E4 50 mg/kg/per day group (n=19). From postnatal day 4, rat pups were intraperitoneally injected either vehicle (Vehicle group) or E4 (1, 5, 10, or 50 mg/kg/per day in accordance to the E4 group assignment) or neither vehicle nor E4 (Sham group). At day 7, 30 minutes after last injection, animals were anesthetized with isoflurane (induction, 3.0%; maintenance, 1.5%), and the rat pups from Vehicle and E4 groups passed through surgery encompassing left common carotid artery double ligation and cut. After the procedure, the pups were returned to their dams and were allowed to recover for 1 hour. The pups were then placed in the humidified hypoxic in vivo cabinet (CoyLab, Grass Lake, Mich., USA). […]
(In an ELISA, binding on a coated surface is turned into a signal by an enzyme label.)

The subject of another assay is doublecortin (DCX). In words: Ex.3 neuroprotective HIE rat model: doublecortin staining. As to the method:
The sections were heated in 10 mmol/L citrate buffer (pH 6.0) at 100° C. for 10 minutes. Endogenous peroxidase activity was blocked with 3% hydrogen peroxide for 10 minutes and after a second blocking with 5% normal goat serum, the sections were incubated with anti-doublecortin (DCX) antibody, diluted 1:1000 (rabbit polyclonal antibody; Abcam, Cambridge, UK) and anti-vascular endothelial growth factor (VEGF) antibody, diluted 1:100 (mouse monoclonal antibody; Abcam, Cambridge, UK) overnight at 4° C. After rinsing, Alexa Fluor® goat anti-rabbit, diluted 1:1000 and Alexa Fluor® goat anti-mouse, diluted 1:1000 (Invitrogen Inc., Ghent, Belgium) were added and sections were incubated 1 h at room temperature. Mounting medium containing 4′,6-diamidino-2-phenylindole (DAPI) for fluorescent studies was used (Vector Laboratories). Samples were analyzed with the aid of a microscope (Olympus Vanox AHBT3, Olympus), and the ImageJ software (NIH). The percentage of positively stained cells was quantified as a sum of positively stained either DCX or VEGF cells divided by the total number of DAPI positive cells expressed in percentage.
Newborn rat pups were assigned to one of the following 6 groups from postnatal day 4: Sham group (n=24), Vehicle group (n=14), E4 1 mg/kg/per day group (n=11), E4 5 mg/kg/per day group (n=14), E4 10 mg/kg/per day group (n=14), or E4 50 mg/kg/per day group (n=19). From postnatal day 4, rat pups were intraperitoneally injected either vehicle (Vehicle group) or E4 (1, 5, 10, or 50 mg/kg/per day in accordance to the E4 group assignment) or neither vehicle nor E4 (Sham group). At day 7, 30 minutes after last injection, animals were anesthetized with isoflurane (induction, 3.0%; maintenance, 1.5%), and the rat pups from Vehicle and E4 groups passed through surgery encompassing left common carotid artery double ligation and cut. After the procedure, the pups were returned to their dams and were allowed to recover for 1 hour. The pups were then placed in the humidified hypoxic in vivo cabinet (CoyLab, Grass Lake, Mich., USA). Hypoxia was produced by the inhalation of 11%-8% of oxygen balanced by nitrogen at decreased concentration of oxygen for 20 minutes, followed by inhalation of 8% oxygen and 92% nitrogen at constant concentration for 35 minutes. All the manipulations were performed at 37° C. The Sham group went through similar procedures without left common carotid artery ligation followed by hypoxia nor injection. Rat pups recovered with their dams and reared normally until being sacrificed at postnatal day 14.

Assay [2] concerns glial fibrillary acidic protein (GFAP). Briefly: Ex.4 therapeutic HIE rat model: blood serum GFAP ELISA. Particulars: estetrol treated animals (1, 5, 10, 50 mg/kg single ip dose after HI); PND14; vs vehicle. On the procedure:
as §1, §2
(§3) To study the therapeutic effect of estetrol, newborn rat pups were assigned to one of the following 6 groups at postnatal day 7: sham group (n=29), vehicle group (n=20), 1 mg/kg E4 group (n=16), 5 mg/kg E4 group (n=19), 10 mg/kg day E4 (n=17) and 50 mg/kg day E4 group (n=15). At postnatal day 7 animals were anesthetized with isoflurane (induction, 3.0%; maintenance, 1.5%), and the rat pups from vehicle and E4 groups passed through surgery encompassing left common carotid artery double ligation and cut. After surgery, the pups were returned to their dams and allowed to recover for 1 hour. The pups were then placed in a humidified hypoxic in vivo cabinet (CoyLab). Hypoxia was produced by the inhalation of 11%-8% of oxygen balanced by nitrogen at decreased concentration of oxygen for 20 minutes, followed by inhalation of 8% oxygen and 92% nitrogen at constant concentration for 35 minutes. All the manipulations were performed at 37° C. […]

In assay [3] the test system is S100B. In words: Ex.4 therapeutic HIE rat model: blood serum S100B ELISA. The following applies: estetrol treated animals (1, 5, 10, 50 mg/kg single ip dose after HI); PND14; vs vehicle. On the procedure: as §1, §2, §3

Here are results for one compound from US9808470B2, “Estrogenic components for use in the treatment of neurological disorders” (UNIVERSITE DE LIEGE, priority 2012, dated 2017).

The structures appear in SMILES notation.

As to `C[C@]12CC[C@@H]3c4ccc(O)cc4CC[C@H]3[C@@H]1[C@@H](O)[C@@H](O)[C@@H]2O` [E4, 1,3,5(10)-estratrien-3,15α,16α,17β-tetrol], the “concentration of S100B in blood serum” value with S100B [1] (10 mg/kg E4 ip PND4-7 before HI, vs sham, 5 mg/kg E4 and 50 mg/kg E4) was “significantly higher”; in the assay with S100B [1] (50 mg/kg E4 ip PND4-7 before HI), 361 ± 32.914 pg/mL. Besides, the “percentage of DCX positively stained cells” value is 35.2±3.309% in the assay with doublecortin (DCX) (5 mg/kg E4 ip PND4-7 before HI, CA1); 30.3±3.7% in the assay with doublecortin (DCX) (5 mg/kg E4 ip PND4-7 before HI, CA2/CA3); 34.1±6.664% with doublecortin (DCX) (10 mg/kg E4 ip PND4-7 before HI, CA1); 55.8±5.658% in the assay on doublecortin (DCX) (10 mg/kg E4 ip PND4-7 before HI, DG); 52.1±7.762% in the assay on doublecortin (DCX) (10 mg/kg E4 ip PND4-7 before HI, cortex). Besides, the “expression of GFAP protein in blood serum” value in assay [2] is recorded as “significantly lower expression”. Also, in the assay with S100B [3], the “expression of S100B protein in blood serum” value is listed as “significantly lower expression”.
